# Reference: paper PMC7507959, “A Structure-Based Mechanism for DNA Entry into the Cohesin Ring” (Molecular Cell, 2020)
# B1: Psc3 (natural protein, fission yeast (S. pombe), UniProt O13816 1-962, looked up)
# chain: MSESVTTGSDDDGGDRESSPVMLSQSFDPMSSSSNSSSEENSDDDYEKTISSKKRHPRPNSKGVNVKRSRRNAIVEEDPQEEIFNNLFAFLLDQKVDTMDIAVSWFADYAKDNQSALANLINFILKCCGCNRAINVFDVQDQDSASATLSQIQLSVERTSTRDYPLNSKNLKFRNFRKRLTGLLSNFVSQLSIRNYLYNSTVFEDIMSWVVAMSSSTMRPIRHTATVFCLNIMTFLCEKSKELLNEHAIATKQLEKEEKRSRVNRNRINELNNSLGEIVKQQDTLTTYLNDYFDSVFVHRYRDVEPKIRVDCLQELGVWINTVPSIFFSGSYLRYLGWMLSDINTTVRLTVVKVLRKFFETDSFIGGLRHFSSRFKERILEMSCVDADIGVRVASIRLCNAMRTCGFLENSEILKVLKLILDINPRVQREAVLFLCKVVDESVNEKIDLWGEEDYILKAFSQTSLTTFSVHWIKFSQMCKLLEEVRLSYQSSFDYDTLLRIFQKNGNFITPITQALLNACEIDSIYQSWEDISNFVLFDNYTSTLKDPIDSILSFCKLNDFQESILLQLLSASIQTVCNNNFITPKTVHNKQAAETTNDQNKDKDLLYLNLLPYINSITERNSASPTLLHDSLRLLFSMDLTEMTDPQLSRHFELLINNLKKFFLTNNDLQIIQGCTILFLRLDSIPALKEDLKLLVTDICDQTVTEFLKNFGSFNIQDAVITKDEFVIFEACLTRIEGCTSLKDFSDYPEFDIIYERLVSLLSRVPNSYEDTLKFSAINTLQSLLFWFFLRKDNPADEEKKKDDETKVFNCLINIMNNDSSKILQLQAARTFLETVIMKEGVKASHYNDDNRVSEEHNFLKPQFLDALLKILEGWLYTYAKVGQFPFKRLTQASSPHTQISLDKNPLNRRLLEHVCCDLTSKLLIVVSLSNTITPEFSQQFCELRGHYGPKLSAIVDEFLN
# notes: Psc3 (Scc3/STAG1/2), HEAT repeat subunit of fission yeast cohesin; Subunit of the wild-type tetramer; constructs from Murayama and Uhlmann, 2014; also called Psc3^Scc3/STAG1/2; Scc3; source: budding yeast (W303 background), galactose-induced, purified as part of the cohesin tetramer
# B2: Ssl3 (natural protein, fission yeast (S. pombe), UniProt O94459 1-559, looked up)
# chain: MTGLNETDARILVTSRHLFLWPLAETYFKNAEKVLQDCGVCDSFGRLLSTGLQCLYSVLMDTKMEPRVELLTRKRICEVLLSHTVEYADVEAILNRALIIAEQHNLTEYKFSLQLLLSRVFCRTSPKAAKVLLTRCVREAEEYAKVAEIYHSNNQSNPHRWVYEFLLATLEFQNVSQVANSIHNYANHHKHQHLQLLAMILNQSLPMDEISTDSDQISILCLVTQIAQCLRKGEILLAREILPKIHSKLESETFVWPSSYIDFFIDDTSKISIKWMSINQLYLLIYLISGFCYISDSTSGRASRFLQEGLRITGDFKHQERCVLEYLESQKWINNITKDMKYYLIATYLSRSRLSKAERILQSTEDDQTGFLGILKGMYLQKRGDLKKAEVHYRETAKNFSFRTDTFIISTLNLINILEDSAAASRCLESIEPLCNKHEKKIFKLWLLVLKVIREGPQVHQSNVLPRVIQQSSEYANTQLQYISLTELSERFGKLEHAEKMAISALELAKKSKDELWCLISGRILEDFYRSVQKYDKMRQQALENSAYSKLIEDIYSFV
# notes: Ssl3 (Scc4/MAU2), small subunit of the fission yeast cohesin loader; Used as the Mis4-Ssl3 complex; construct (plasmid pSsl3) from Murayama and Uhlmann, 2014; also called Ssl3^Scc4/MAU2; Scc4; source: fission yeast, thiamine-repressible expression, purified as Mis4-Ssl3
# Key:
# [1] = target: T1, fission yeast cohesin (Psm1-Psm3-Rad21-Psc3) with Mis4-Ssl3 loader (Schizosaccharomyces pombe, UniProt O42649+O94383); assay: ATP hydrolysis, [gamma-33P]-ATP thin layer chromatography; type: biochemical; details: 0.25 mM ATP, Mis4-Ssl3, pBluescript dsDNA, 32 °C
# T1 construct: tetramer expressed in budding yeast (W303); Mis4-Ssl3 expressed in fission yeast; FRET rows carry SNAP on Psm1 and CLIP on Psm3 C termini; with Cohesin subunit rad21; Cohesin subunit psc3; Sister chromatid cohesion protein mis4; MAU2 chromatid cohesion factor homolog ssl3
# [2] = target: T2, N17-cohesin with Mis4-Ssl3 loader (Schizosaccharomyces pombe, UniProt O42649+O94383); assay: as above; type: biochemical; details: 0.25 mM ATP, Mis4-Ssl3, pBluescript dsDNA, 32 °C
# T2 construct: gene psm1; as P1 but Rad21 lacks amino acids 1-17 (residues 18-646); expressed in budding yeast; with Cohesin subunit rad21; Cohesin subunit psc3; Sister chromatid cohesion protein mis4; MAU2 chromatid cohesion factor homolog ssl3
# [3] = target: T3, fission yeast cohesin (Psm1-Psm3-Rad21-Psc3) with Mis4-Ssl3 loader (Schizosaccharomyces pombe, UniProt O42649+O94383, O42649:E1126Q/O94383:E1161Q); assay: FRET between SNAP/CLIP-labelled ATPase heads; type: binding; details: hydrolysis-deficient EQ-cohesin; 0.5 mM ATP, Mis4-Ssl3, DNA, 1 mM MgCl2, pH 7.5, 32 °C
# T3 construct: tetramer expressed in budding yeast (W303); Mis4-Ssl3 expressed in fission yeast; FRET rows carry SNAP on Psm1 and CLIP on Psm3 C termini; with Cohesin subunit rad21; Cohesin subunit psc3; Sister chromatid cohesion protein mis4; MAU2 chromatid cohesion factor homolog ssl3
# Mis4 = target: T4, Mis4 (fission yeast (S. pombe), UniProt Q09725 1-1587); assay: cross-linking; SDA (NHS-diazirine) UV crosslinking with mass spectrometry (CLMS), gripping state: 200 nM cohesin, 200 nM Mis4-Ssl3, 200 nM 125 bp dsDNA, 0.5 mM ADP and 0.5 mM BeSO4 + 10 mM NaF, 32°C 20 min; details: both partners purified
# T4 construct: Mis4 (Scc2/NIPBL), fission yeast cohesin loader; Used as the Mis4-Ssl3 complex; construct from Murayama and Uhlmann, 2014; also called Mis4^Scc2/NIPBL; cohesin loader; source: fission yeast, thiamine-repressible expression, purified as Mis4-Ssl3
# Psc3 = target: B1; assay: as above; details: both partners purified
# T4 sequence (Q09725 whole entry): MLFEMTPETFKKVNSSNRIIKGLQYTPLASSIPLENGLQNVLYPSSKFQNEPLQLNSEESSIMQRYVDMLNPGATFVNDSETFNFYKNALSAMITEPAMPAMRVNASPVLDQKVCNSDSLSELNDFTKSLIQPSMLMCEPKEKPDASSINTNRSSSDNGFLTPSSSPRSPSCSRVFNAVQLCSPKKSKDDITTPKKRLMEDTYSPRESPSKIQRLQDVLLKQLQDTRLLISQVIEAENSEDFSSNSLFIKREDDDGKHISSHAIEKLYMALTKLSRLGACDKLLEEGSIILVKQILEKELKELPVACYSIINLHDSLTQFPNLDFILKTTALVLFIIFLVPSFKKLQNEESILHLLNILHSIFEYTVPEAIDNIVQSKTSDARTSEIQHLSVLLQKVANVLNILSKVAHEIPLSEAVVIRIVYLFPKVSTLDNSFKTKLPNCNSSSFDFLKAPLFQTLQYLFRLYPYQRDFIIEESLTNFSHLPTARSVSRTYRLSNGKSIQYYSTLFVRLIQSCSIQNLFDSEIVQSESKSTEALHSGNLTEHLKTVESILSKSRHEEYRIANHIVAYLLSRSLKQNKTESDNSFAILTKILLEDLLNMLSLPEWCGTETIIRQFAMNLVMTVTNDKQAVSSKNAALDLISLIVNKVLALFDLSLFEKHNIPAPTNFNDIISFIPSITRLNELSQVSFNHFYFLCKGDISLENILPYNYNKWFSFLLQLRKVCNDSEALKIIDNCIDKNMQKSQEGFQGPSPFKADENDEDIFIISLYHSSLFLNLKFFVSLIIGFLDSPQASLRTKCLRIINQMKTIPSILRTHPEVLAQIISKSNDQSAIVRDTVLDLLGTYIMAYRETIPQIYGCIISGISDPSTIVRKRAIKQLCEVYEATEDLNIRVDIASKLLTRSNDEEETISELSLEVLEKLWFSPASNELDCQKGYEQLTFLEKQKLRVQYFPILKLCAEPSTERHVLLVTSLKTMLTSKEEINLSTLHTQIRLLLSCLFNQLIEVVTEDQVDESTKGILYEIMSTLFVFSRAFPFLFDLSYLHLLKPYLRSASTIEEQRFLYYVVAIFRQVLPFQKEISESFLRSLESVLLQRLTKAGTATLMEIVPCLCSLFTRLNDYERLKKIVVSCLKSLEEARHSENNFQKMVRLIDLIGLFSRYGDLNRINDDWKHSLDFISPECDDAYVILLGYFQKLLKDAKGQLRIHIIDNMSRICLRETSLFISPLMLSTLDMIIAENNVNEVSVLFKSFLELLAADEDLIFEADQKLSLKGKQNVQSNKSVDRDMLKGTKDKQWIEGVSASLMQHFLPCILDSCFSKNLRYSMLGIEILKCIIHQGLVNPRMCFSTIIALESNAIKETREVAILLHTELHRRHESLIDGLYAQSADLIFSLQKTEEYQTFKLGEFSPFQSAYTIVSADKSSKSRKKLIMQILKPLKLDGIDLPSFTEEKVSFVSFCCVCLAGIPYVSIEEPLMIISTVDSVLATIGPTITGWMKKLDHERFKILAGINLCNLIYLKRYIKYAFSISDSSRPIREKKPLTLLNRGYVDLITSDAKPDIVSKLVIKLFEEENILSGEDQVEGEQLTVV
# T3 sequence (O94383 whole entry E1161Q, one chain of several): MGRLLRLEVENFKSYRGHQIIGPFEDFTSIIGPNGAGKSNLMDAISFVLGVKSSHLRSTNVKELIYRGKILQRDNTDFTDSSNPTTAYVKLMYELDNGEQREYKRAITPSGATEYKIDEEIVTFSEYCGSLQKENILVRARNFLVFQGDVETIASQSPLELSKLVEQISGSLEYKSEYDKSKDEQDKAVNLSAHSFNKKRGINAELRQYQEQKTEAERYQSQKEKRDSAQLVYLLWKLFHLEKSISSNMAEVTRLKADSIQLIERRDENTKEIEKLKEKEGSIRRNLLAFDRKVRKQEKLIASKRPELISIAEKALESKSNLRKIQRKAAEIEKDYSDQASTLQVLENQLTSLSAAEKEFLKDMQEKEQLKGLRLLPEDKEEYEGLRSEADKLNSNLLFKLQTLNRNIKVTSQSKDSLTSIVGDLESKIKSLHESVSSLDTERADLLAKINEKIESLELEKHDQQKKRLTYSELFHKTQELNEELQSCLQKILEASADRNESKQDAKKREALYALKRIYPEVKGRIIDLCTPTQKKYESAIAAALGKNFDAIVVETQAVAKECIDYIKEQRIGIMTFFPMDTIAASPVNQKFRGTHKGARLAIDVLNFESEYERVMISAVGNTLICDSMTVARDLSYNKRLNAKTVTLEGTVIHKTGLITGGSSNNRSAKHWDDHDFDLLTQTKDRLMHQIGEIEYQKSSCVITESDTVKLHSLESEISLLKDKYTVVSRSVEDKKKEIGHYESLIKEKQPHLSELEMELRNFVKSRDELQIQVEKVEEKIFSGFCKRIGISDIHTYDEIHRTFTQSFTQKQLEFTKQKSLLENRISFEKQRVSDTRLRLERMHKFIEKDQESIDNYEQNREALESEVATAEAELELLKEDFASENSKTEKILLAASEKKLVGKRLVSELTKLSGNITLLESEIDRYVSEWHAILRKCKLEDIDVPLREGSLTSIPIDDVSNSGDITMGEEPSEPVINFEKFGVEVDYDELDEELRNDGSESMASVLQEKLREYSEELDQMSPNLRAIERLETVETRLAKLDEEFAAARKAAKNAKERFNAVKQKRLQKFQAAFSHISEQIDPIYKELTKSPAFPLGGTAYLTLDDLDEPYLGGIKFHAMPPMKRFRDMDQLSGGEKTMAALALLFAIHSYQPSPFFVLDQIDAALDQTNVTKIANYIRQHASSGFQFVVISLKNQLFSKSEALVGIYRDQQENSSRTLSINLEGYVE
# T3 sequence (O42649 whole entry E1126Q, one chain of several): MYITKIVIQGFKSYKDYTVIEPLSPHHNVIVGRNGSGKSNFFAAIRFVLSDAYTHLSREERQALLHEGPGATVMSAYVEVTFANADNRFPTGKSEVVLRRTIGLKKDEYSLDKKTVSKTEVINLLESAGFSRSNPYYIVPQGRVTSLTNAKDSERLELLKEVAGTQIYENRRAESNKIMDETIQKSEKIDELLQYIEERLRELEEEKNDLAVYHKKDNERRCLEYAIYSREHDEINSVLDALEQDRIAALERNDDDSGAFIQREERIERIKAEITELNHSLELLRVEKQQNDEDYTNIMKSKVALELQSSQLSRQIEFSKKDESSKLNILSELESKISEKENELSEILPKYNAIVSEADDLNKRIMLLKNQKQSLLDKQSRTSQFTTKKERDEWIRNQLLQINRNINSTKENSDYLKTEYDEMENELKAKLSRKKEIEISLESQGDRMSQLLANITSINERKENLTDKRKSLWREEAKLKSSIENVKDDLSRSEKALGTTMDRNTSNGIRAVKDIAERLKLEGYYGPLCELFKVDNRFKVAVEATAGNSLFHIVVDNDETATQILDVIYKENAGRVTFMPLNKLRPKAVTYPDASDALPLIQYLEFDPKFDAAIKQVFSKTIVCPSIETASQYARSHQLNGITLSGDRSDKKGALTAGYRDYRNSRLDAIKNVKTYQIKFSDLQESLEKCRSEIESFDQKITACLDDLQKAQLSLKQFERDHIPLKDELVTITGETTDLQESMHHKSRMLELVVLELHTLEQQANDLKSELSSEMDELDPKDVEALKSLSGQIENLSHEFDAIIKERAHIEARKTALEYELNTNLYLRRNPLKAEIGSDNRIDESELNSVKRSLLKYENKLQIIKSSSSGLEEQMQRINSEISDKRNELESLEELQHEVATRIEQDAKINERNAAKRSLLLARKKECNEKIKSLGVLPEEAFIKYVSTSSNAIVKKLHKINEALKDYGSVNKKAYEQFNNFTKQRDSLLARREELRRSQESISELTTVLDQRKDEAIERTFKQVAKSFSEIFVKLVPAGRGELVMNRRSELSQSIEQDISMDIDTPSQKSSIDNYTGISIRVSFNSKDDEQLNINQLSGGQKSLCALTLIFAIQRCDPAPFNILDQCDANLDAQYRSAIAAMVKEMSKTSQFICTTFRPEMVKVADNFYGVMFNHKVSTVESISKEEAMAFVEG
# T3 sequence (P30776 whole entry partner, one chain of several): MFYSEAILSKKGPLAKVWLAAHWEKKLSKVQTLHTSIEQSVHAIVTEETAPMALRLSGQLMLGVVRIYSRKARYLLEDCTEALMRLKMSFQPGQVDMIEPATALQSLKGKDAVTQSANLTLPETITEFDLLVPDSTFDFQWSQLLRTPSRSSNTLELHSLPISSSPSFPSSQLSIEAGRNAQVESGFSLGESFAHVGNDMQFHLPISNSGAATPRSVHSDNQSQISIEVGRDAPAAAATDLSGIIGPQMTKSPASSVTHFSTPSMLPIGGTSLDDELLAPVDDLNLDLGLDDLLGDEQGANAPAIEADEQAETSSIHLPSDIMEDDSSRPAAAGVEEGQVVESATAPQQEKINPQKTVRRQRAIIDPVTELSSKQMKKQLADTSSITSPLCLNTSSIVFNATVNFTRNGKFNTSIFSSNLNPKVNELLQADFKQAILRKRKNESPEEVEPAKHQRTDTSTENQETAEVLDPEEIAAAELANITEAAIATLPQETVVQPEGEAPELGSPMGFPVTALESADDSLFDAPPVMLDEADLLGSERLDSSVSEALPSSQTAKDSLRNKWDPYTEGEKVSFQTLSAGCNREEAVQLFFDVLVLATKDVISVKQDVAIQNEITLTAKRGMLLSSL
# T3 sequence (Q09725 whole entry partner, one chain of several): as the sequence (Q09725 whole entry) above
# T1 sequence (O94383 whole entry, one chain of several): as the sequence (O94383 whole entry E1161Q, one chain of several) above, with Q1161E counted along it
# T1 sequence (O42649 whole entry, one chain of several): as the sequence (O42649 whole entry E1126Q, one chain of several) above, with Q1126E counted along it
# T1 sequence (P30776 whole entry partner, one chain of several): as the sequence (P30776 whole entry partner, one chain of several) above
# T1 sequence (Q09725 whole entry partner, one chain of several): as the sequence (Q09725 whole entry) above
molecule,measurement,setting,value
Nc1ncnc2c1ncn2[C@@H]1O[C@H](COP(=O)(O)OP(=O)(O)OP(=O)(O)O)[C@@H](O)[C@H]1O [ATP],"ATP hydrolysis, [gamma-33P]-ATP thin layer chromatography",[1],loader-stimulated ATP hydrolysis were equal when using wild-type or N17-cohesin
same,"ATP hydrolysis, [gamma-33P]-ATP thin layer chromatography",[2],loader-stimulated ATP hydrolysis were equal when using wild-type or N17-cohesin
same,FRET between SNAP/CLIP-labelled ATPase heads,[3],"the presence of all three components—the loader, DNA, and ATP—resulted in a marked FRET increase"
B1,binding result,Mis4,binds
B2,binding result,Psc3,binds
